# From EPA's ToxValDB 9.5
# Legend:
# Cricetulus sp. = details: for NOAEL: oral, gavage, Hamster
# Mus musculus [1] = tested on: Mus musculus
# Oryctolagus sp. [2] = details: acute; dermal; New Zealand
# Rattus norvegicus [3] = tested on: Rattus norvegicus
# Canidae [4] = details: oral, Dog Other
# Canidae [5] = details: oral, M/F, Dog Other
# Sus scrofa = details: oral, Not specified; for LOEL: duration: 14 weeks, M/F, Changes in serum testosterone and estradiol and testes weight
# Rattus norvegicus [6] = details: oral, M/F
# Homo sapiens = details: clinical, inhalation
# Rattus norvegicus [7] = details: oral
# Rattus norvegicus [8] = details: subchronic; duration: 90 days; oral; gavage; Kidney: Increased weight + Kidney: Nephrotoxicity + Liver: Increased weight
# Rattus norvegicus [9] = details: oral; remark: listed apart in the source
# Rattus norvegicus [10] = details: repeat dose other; oral
# Rattus norvegicus [11] = details: Hershberger, duration: 10 days, oral, gavage, Sprague-Dawley
# Oryctolagus sp. [12] = details: reproduction developmental; duration: 12 days; oral; gavage; M/F; New Zealand; gastrointestinal
# Macaca mulatta = details: repeat dose other; oral
# Coturnix japonica = details: repeat dose other; oral
# Neovison sp. = details: repeat dose other; oral; Mink
# Mus musculus [13] = details: subchronic; duration: 6 weeks; oral; Liver: Hepatotoxicity
# Mus musculus [14] = details: repeat dose other; oral
# [15] = chronic, duration: 14 weeks, inhalation, F, B6C3F1
# [16] = chronic, duration: 14 weeks, inhalation, M, B6C3F1
# [17] = chronic, duration: 14 weeks, inhalation, F, Fischer 344
# [18] = chronic, duration: 14 weeks, inhalation, M, Fischer 344
# [19] = reproduction developmental, forelimb hair loss + Parturition mortality
# [20] = subchronic, drinking water, nephropathy
# [21] = reproduction developmental, increased incidence of renal tubular dilation in f3b offspring
# [22] = short-term, duration: 28 days, gavage, M, Sprague-Dawley, Clinical Observation: Salivationlocomotor activity decrease, Soft stool/diarrhea + Urinalysis: Brownish urine Occult blood + Hematology: PT …
# [23] = chronic, duration: 2 years, diet, renal tubular epithelial vacuolation
# [24] = subchronic, internal hemorrhage, mortality
compound,measurement,setting,value
CC1=CCC2CC1C2(C)C (stereo not drawn) [alpha-Pinene],NOAEL,"Cricetulus sp.; developmental, duration: 10 days",600 mg/kg-day
same,NOAEL,"Cricetulus sp.; reproduction developmental, duration: 10 days, F",600 mg/kg-day
same,NOAEL,Cricetulus sp.; reproduction developmental,600 mg/kg-day
same,LOAEL,Mus musculus [1]; [15],557 mg/m3
same,NOAEL,Mus musculus [1]; [15],279 mg/m3
same,LOAEL,Mus musculus [1]; [16],557 mg/m3
same,NOAEL,Mus musculus [1]; [16],279 mg/m3
same,NOAEL,"Mus musculus [1]; reproduction developmental, duration: 10 days, oral, gavage, F, CD1",560 mg/kg-day
same,LD50,Oryctolagus sp. [2],> 5000 mg/kg
same,LD50,"Rattus norvegicus [3]; acute, oral, Wistar",3700 mg/kg
same,LOAEL,Rattus norvegicus [3]; [17],340 mg/kg-day
same,NOAEL,Rattus norvegicus [3]; [17],170 mg/kg-day
same,LOAEL,Rattus norvegicus [3]; [18],42 mg/kg-day
same,NOAEL,Rattus norvegicus [3]; [18],21 mg/kg-day
same,NOAEL,"Rattus norvegicus [3]; developmental, duration: 10 days, oral, gavage, Wistar",260 mg/kg-day
same,NOAEL,"Rattus norvegicus [3]; reproduction developmental, duration: 10 days, oral, gavage, F, Wistar",260 mg/kg-day
Oc1c(Cl)cc(Cl)c(Cl)c1Cc1c(O)c(Cl)cc(Cl)c1Cl [Hexachlorophene],LOAEL,"Canidae [4]; subchronic, duration: 13 weeks, diet, Nervous system: Effects",0.75 mg/kg-day
same,LEL,"Canidae [5]; subchronic, duration: 13 weeks, diet, swollen salivary gland, status spongiosis in brain and optic nerve",0.75 mg/kg-day
CC1=C[C@H]2O[C@@H]3[C@H](O)C[C@](C)([C@@]2(CO)[C@H](O)C1=O)[C@@]31CO1 [Vomitoxin],NOEL,"Sus scrofa; repeat dose other, diet, Emesis",0.25 mg/kg-day
[P] [Phosphorus],LOAEL,Rattus norvegicus [6]; [19],0.075 mg/kg-day
same,NOAEL,Rattus norvegicus [6]; [19],0.015 mg/kg-day
same,LOAEL,"Homo sapiens; duration: 5 minutes, M, respiratory",187 mg/m3
same,NOAEL,"Rattus norvegicus [7]; reproduction developmental, duration: 204 days, gavage, M/F, Sprague-Dawley, reproductive",0.015 mg/kg-day
CC(C)=O [Acetone],NOEL,Rattus norvegicus [8],100 mg/kg-day
same,NOEL,"Rattus norvegicus [9]; subchronic, drinking water, M/F, Fischer 344, Body Weight Changes: decrease + Water Consumption: decrease + Hematology: WBC increase, Lymph increase, Hgb decrease, RBC decrease, MCH …",380 mg/kg-day
same,LOAEL,Rattus norvegicus [6]; [20],1700 mg/kg-day
same,NOAEL,Rattus norvegicus [6]; [20],900 mg/kg-day
same,LOAEL,"Homo sapiens; duration: 4 hours, M/F, neurological",563 mg/m3
same,LOAEL,Rattus norvegicus [10],50 mg/kg-day
same,NOAEL,Rattus norvegicus [10],10 mg/kg-day
same,NOEL,Rattus norvegicus [11]; inactive + Negative + Negative + neither + see comment,1000 mg/kg-day
O=C(O)CNCP(=O)(O)O [Glyphosate],NOEL,"Rattus norvegicus [9]; subchronic, diet, F, Fischer 344, Clinical Observation: Diarrhea + Body Weight Changes: decrease(>25000 ) + Hematology: Hct increase, RBC increase, Hgb increase + Blood …",213 mg/kg-day
same,NOEL,"Rattus norvegicus [9]; subchronic, diet, M/F, Fischer 344, Clinical Observation: Diarrhea + Body Weight Changes: decrease(>25000 ) + Hematology: Hct increase, RBC increase, Hgb increase + Blood …",< 300 mg/kg-day
same,LEL,Rattus norvegicus [6]; [21],30 mg/kg-day
same,NOEL,Rattus norvegicus [6]; [21],10 mg/kg-day
same,NOAEL,Oryctolagus sp. [12],100 mg/kg-day
same,NOAEL,"Rattus norvegicus [7]; chronic, duration: 24 months, diet, F, albino Sprague Dawley, gastrointestinal",113 mg/kg-day
same,NOAEL,"Rattus norvegicus [7]; chronic, duration: 24 months, diet, M/F, albino Sprague Dawley, gastrointestinal",113 mg/kg-day
same,NOEL,Rattus norvegicus [11]; inactive + Negative + Negative + neither + decrease in AST and liver at 1000 / decrease in bw 10% at 1000 / testosterone dose-dependent …,300 mg/kg-day
N#Cc1c(Cl)c(Cl)c(Cl)c(C#N)c1Cl [Chlorothalonil],NOEL,"Canidae [4]; chronic, duration: 2 years, diet, Kidney: Effects",1.5 mg/kg-day
same,NOAEL,Rattus norvegicus [9]; [22],< 100 mg/kg-day
same,NOEL,Rattus norvegicus [9]; [22],< 100 mg/kg-day
same,LEL,Canidae [5]; [23],3 mg/kg-day
same,NOEL,Canidae [5]; [23],1.5 mg/kg-day
same,NOEL,Rattus norvegicus [11]; inactive + Negative + Negative + neither + see note,175 mg/kg-day
Clc1cc(Cl)cc(-c2cc(Cl)cc(Cl)c2)c1 [Aroclor 1248],LOAEL,Macaca mulatta,0.1 mg/kg-day
same,NOAEL,Macaca mulatta,0.01 mg/kg-day
"O=C(O)CCCOc1ccc(Cl)cc1Cl [2,4-Dichlorophenoxybutyric acid]",NOAEL,"Canidae [4]; subchronic, duration: 90 days, diet, Cardiovascular system: Hemorrhage + Whole body: Increased mortality",8 mg/kg-day
same,LOAEL,Canidae [5]; [24],25 mg/kg-day
same,NOAEL,Canidae [5]; [24],8 mg/kg-day
"ClC1C(Cl)C(Cl)C(Cl)C(Cl)C1Cl (stereo not drawn) [1,2,3,4,5,6-Hexachlorocyclohexane]",LOAEL,Coturnix japonica,2.25 mg/kg-day
same,NOAEL,Coturnix japonica,0.56 mg/kg-day
same,LOAEL,Neovison sp.,0.14 mg/kg-day
same,NOAEL,Neovison sp.,0.014 mg/kg-day
CC(=O)O[C@H]1CC[C@H]2[C@@H]3CCC4=CC(=O)CCC4=C3C=C[C@]12C [Trenbolone acetate],LOEL,"Sus scrofa; chronic, diet",0.002 mg/kg-day
same,LOEL,Sus scrofa; feed,2 µg/kg-day
CNC(=O)ON=C(CSC)C(C)(C)C,NOAEL,"Canidae [4]; short-term, duration: 8 days, Cholinesterase: Decreased cholinesterase activity",0.025 mg/kg-day
COCCl [Chloromethyl methyl ether],LC50,"Cricetulus sp.; acute, inhalation, Golden Syrian",214 mg/m3
same,LC50,"Rattus norvegicus [3]; acute, inhalation, Sprague-Dawley",181 mg/m3
same,LD50,"Rattus norvegicus [3]; acute, oral",817 mg/kg
same,NOAEL,"Rattus norvegicus [3]; developmental, duration: 15 days, inhalation, Sprague-Dawley",132 mg/m3
same,NOAEL,"Rattus norvegicus [3]; reproduction developmental, duration: 10 days, inhalation, F, Sprague-Dawley",0.006 mg/L
same,NOEL,"Rattus norvegicus [9]; subchronic, duration: 42 days, gavage, M, CD(SD), Body Weight Changes: decrease + Food Consumption: decrease + Urinalysis: Osm decrease + Hematology: RET increase, WBC increase, LYMPH …",< 15 mg/kg-day
ClC1=C(Cl)[C@]2(Cl)[C@@H]3[C@@H](Cl)[C@H]4O[C@H]4[C@@H]3C1(Cl)C2(Cl)Cl [Heptachlor epoxide B],LOAEL,"Canidae [4]; chronic, duration: 60 weeks, diet, Liver: Increased relative weight",0.0125 mg/kg-day
same,LEL,"Canidae [5]; chronic, duration: 60 weeks, diet, increased liver-to-body weight ratio in both males and females",0.0125 mg/kg-day
ClC(Cl)=C(Cl)Cl [Tetrachloroethylene],NOAEL,Mus musculus [13],14 mg/kg-day
same,LOAEL,Mus musculus [14],7 mg/kg-day
same,NOAEL,Mus musculus [14],1.4 mg/kg-day
